Reference: patent US20150141460A1, “Anti-inflammatory Compositions” (Cambridge Enterprise Limited, priority 2007, published 2015)
pEC50: −log10 of the molar value.

Key:
[1] = Pharmacokinetics following a single dose in rat (1 mg/kg iv, 3 mg/kg oral), LC-MS/MS, one-compartment model; assay type: in vivo
Experimental: Compounds were administered as a single dose (either 1 mg/kg bodyweight in 5% DMSO via the intravenous route or 3 mg/kg in 1% carboxymethylcellulose via the oral route) to three adult rats (using different rats for each compound and each route of administration).
Blood was then sampled at various time points (including just prior to dose administration) out to 24 hrs post dose, and the level of the various compounds was assessed using a validated LC-MS/MS assay. Briefly, 3-5 μl of the deproteinised sample was applied to a Waters Atlantis (C18 20×2.1 mm, 3 μm bead size) reverse phase chromatography column equilibrated in 0.1% formic acid in 95:5 water:actetonitrile. Over 3.5 minutes bound material was gradient eluted reaching 0.1% formic acid in 5:95 water:acetonitrile, followed by a step gradient back to 0.1% formic acid in 95:5 water:acetonitrile. The column eluent was then directed to an Applied Biosystems API 4000/3200 QTrap MS/MS mass spectrometer, with a TurboIonspray™ ion source operating in positive ion mode. The interface temperature was set at 650° C., with a 40 ms dwell time for each MRM transition, monitoring the following ions:
The internal standard in each determination was the related compound (S)-3-(2′,2′-dimethyl-propanoylamino)-caprolactam, which was spiked into the sample prior to deproteinization. The lower limit of quantitation (LLOQ) for this assay was 2.4 ng/ml for each compound except (I′), where it was 38.1 ng/ml.
Following LC-MS/MS analysis of each collected sample, the pharmacokinetic disposition of the compound was modelled using Kinetica software, a well known software package for such applications.
Compounds (VI) and (VII) were subject to pharmacokinetic analysis in rat using exactly the same protocols previous applied for compounds (I) through (V) in example 1.
We therefore subjected (VIII) to pharmacokinetic analysis in rat using exactly the same protocols previous applied for compounds (I′) through (VII) in examples 1 and 7.
The isolated (R)-enantiomer of (I) was therefore synthesised (exactly as described herein for the isolated (S)-enantiomer, but replacing the (S)-ornithine starting material with commercially available (R)-ornithine of high stereochemical purity), and the PK properties of this agent, in rat, was determined using the identical methodology described above (see Examples 1, 7 and 8).

[2] = Identification of the primary metabolites in pooled rat urine by LC-MS-MS; assay type: in vivo; settings: single oral dose 3 mg/kg in 1% CMC, pooled urine over 24 hrs, qualitative
Experimental: Urine was collected from rats exposed to a single oral dose (3 mg/kg in 1% CMC) of each compound over a 24 hour period in metabolic cages. The pooled urine sample was then subjected to full scan mass spectral analysis, using the same LC-MS conditions as described in example 1 above. Further MS-MS analysis of the product ions was then performed, and likely fragmentations/re-arrangements assigned from the publicly available Metabolite ID database.
For the major metabolites, the assigned structures were confirmed by synthesis of authentic samples, using methods well known in the art, which were subject to LC-MS-MS analysis under the same conditions as the urine samples.
Note that metabolite ID studies provide only qualitative estimates of the relative amounts of the different metabolites present, and separately validated assays with appropriate internal standards would be required to quantitate each metabolite species.

[3] = test system: RANTES induced migration of THP-1 cells; assay: ChemoTx transwell migration assay, RANTES induced migration of THP-1 cells; assay type: cell-based; settings: Homo sapiens; THP-1 cell line; maximal dose of chemoattractant; read-out: ED50 RANTES induced migration
Experimental: In principle, this assay consists of two chambers separated by a porous membrane. The chemoattractant is placed in the lower compartment and the cells are placed in the upper compartment. After incubation for a period at 37° C. the cells move towards the chemoattractant, and the number of cells in the lower compartment is proportional to the chemoattractant activity (relative to a series of controls).
Next, the chemoattractant solution to be placed in the lower compartment is prepared. For example, MCP-1 is diluted in GBSS+BSA to give a final concentration of 25 ng/ml. This is divided into two pots, as for the cell suspension. To one pot, the test compound is added to the same final concentration as was added to the cell suspension, while to the other pot an equal volume of GBSS+BSA plus vehicle as appropriate (e.g., not more than 1% DMSO) is added. Alternatively, other chemokines may be used (SDF-1α at 7.5 ng/ml; RANTES at 50 ng/ml; IL-8 at 10 ng/ml using neutrophils as the target cell population). […]
The impact of the test substance is calculated by comparing the chemoattractant-induced migration which occurred in the presence or absence of various concentrations of the test substance. Typically, the inhibition of migration is expressed as a percentage of the total chemoattractant-induced migration which was blocked by the presence of the compound. […]

| minor t½β [1] [h] | Compound | clearance, times lower than for the other lactam BSCIs [1] | plasma half-life, fold longer than the other compounds [1] [fold] | AUC(0-t) ([1]; blood, single oral dose 3 mg/kg in 1% CMC, Tables 7-9, read-out: Exposure (min · ng/ml), oral exposure AUC 0-t (converted)) [ng·h/mL] | oral exposure, fold higher than the next best compound (V) ([1]; oral 3 mg/kg) [fold] | major metabolites / route of metabolism detected in urine [2] | pEC50 [3] |
| --- | --- | --- | --- | --- | --- | --- | --- |
| – | CC(C)(C)C(=O)N[C@H]1CCCNC1=O [Compound (I′), (S)-3-(2′,2′-dimethylpropanoylamino)-tetrahydropyridin-2-one] | more than 10 times | 10 | 15600 | ~20 | no significant metabolites | 10.10 |
| 1.83 | O=C1NCCCC[C@@H]1NC(=O)C12CC3CC(CC(O)(C3)C1)C2 [Compound (V), 3-(3′-hydroxyadamantyl-1-carbonylamino)-caprolactam] | – | – | – | – | the glucuronidated compound was the major metabolite | 9.60 |
